From US9340533B2, “1,4-benzothiazepine-1-oxide derivative and pharmaceutical composition utilizing the same” (priority 2009, dated 2016) come the findings set out here.

For one data set, the system named is chronic infarct rat. In words: Norepinephrine-induced LV diastolic dysfunction in chronic infarct rat. Type of data set: in vivo. An excerpt: Male Wistar rats were used. After induction of anesthesia with 3% isoflurane inhalation, a polyethylene tube was inserted into the trachea. Respiration was subsequently controlled with an artificial ventilator with maintenance of anesthesia using 1.7% isoflurane. The chest was opened at the left third intercostals space and the pericardial membrane was incised. The left anterior descending coronary artery (LAD) was completely ligated with silk string (6.0, Ethicon) in the infarction group. Following this procedure, the chest was immediately closed, the inserted tube in the trachea was removed, and subjects returned to the breeding room after arousal.
Two months after operation, animals were again anesthetized and intubated as described above. A micronanometer-tipped pressure catheter (2F, Millar Instruments) was inserted into the right common carotid artery into the left ventricle (LV) and a polyethylene catheter (SP10) for solution injection was inserted from the right femoral vein to infuse the physiological salt solution (PSS) or test compound solutions. After confirming stable hemodynamics for 10 minutes, 20 μg/kg/min of norepinephrine was infused for 30 minutes in the chronic infarction group. The invention compound [III] (0.1 mg/kg/min) and PSS were infused for 10 minutes after 20 minutes of administration of norepinephrine at 16.6 μL/min for test and control groups, respectively. LV minimum diastolic pressure and LV end-diastolic pressure was counted every minute for 20 heart beats. The area of myocardial infarction (infarction size) in rats was estimated using the modified method of Sandmann et al (J Cardiovasc Pharmacol 2000; 37; 64-77.) for administration of the compound of the present invention and PSS. That is, the infarct size (%) was estimated using the followed formula: […]
Data is shown as means and standard error. The following results are shown in Table 4 (control) and Table 5 (the compound), respectively.

Data set [1] has as its system Male Wistar rats. As to the kind of experiment: Norepinephrine-induced hypertension in rats, LV pressure. Type of data set: in vivo, rat. The following applies: under norepinephrine 20 μg/kg/min. How it is done: Male Wistar rats weighing 260 g were anesthetized with 3% isoflurane inhalation and respiration was subsequently controlled with an artificial ventilator using 1.7% isoflurane for maintained anesthetization. A micronanometer-tipped pressure catheter (2F, Millar Instruments) was inserted from the right common carotid artery into the left ventricle (LV) and a polyethylene catheter (SP 10) for solution injection was inserted from the right femoral vein and test solutions were injected. After confirming stable hemodynamics for 10 minutes, norepinephrine (20 μg/kg/min) was infused for 10 minutes followed by the infusion of the invention compound [III] (0.1 mg/kg/min) for 10 minutes. This invention compound [III] was infused three times with intervals of 10 minutes each. LV pressure was determined for 20 heart beats before and after administration. The infusion speed of each solution was 16.6 μL/min.

Data set [2] concerns Male Wistar rats. In words: Comparison of heart rate, LV pressure and LV diastolic function (-dP/dt) in anesthetized rats. Type of data set: in vivo, rat. The settings on record: for Heart rate after administration / LV diastolic function (−dP/dt) after administration / LV pressure after administration: 0.3 mg/kg/min i.v. for 5 minutes, anesthetized rats; for LV diastolic function (−dP/dt) before administration / LV pressure before administration / Heart rate before administration: baseline of the same rats before infusion; for Heart rate before administration: four rats per group. From the text: Male Wistar rats weighing 280-300 g were bred. After one week, animals were anesthetized with 3% isoflurane inhalation and respiration was subsequently controlled with an artificial ventilator using 1.7% isoflurane for maintained anesthetization. A micronanometer-tipped pressure catheter (2F, Millar Instruments) was inserted from the right common carotid artery into the left ventricle (LV) and a polyethylene catheter (SP10) for solution injection was inserted from the right femoral vein and the compounds [III] and [II] (R═H) were injected. After confirming stable hemodynamics for 10 minutes, heart rate, LV pressure, and maximal negative first derivative of LV pressure (−dP/dt) were investigated continuously. Each compound [III] or [II] was infused at 0.3 mg/kg/min for 5 minutes. Four rats in each group were evaluated. The solvent used consisted of 0.05% citric acid and 5% sorbitol. Each parameter before and after 5 minutes of administration was determined for 20 heart beats.

Data set [3] can be described thus: Stability of the compound at room temperature. Type of data set: physicochemical. The following applies: exposure to oxygen, humidity, acid and alkali at room temperature.
Data set [4] deals with left anterior descending coronary artery of porcine heart. As to the kind of experiment: Coronary relaxation of KCl-contracted porcine coronary artery strip (organ bath). The following applies: Sus scrofa, read-out: concentration inducing 50% of relaxation (EC50%).
Protocol: Porcine heart was purchased without regard of gender. The heart was carried in steep, cool Krebs-Henseleit solution, filled with 95% bubbling oxygen (O2) gas and bicarbonate (CO2) and the left anterior descending coronary artery of 2.5-3 mm diameter was removed. The artery was steeped in the same nutrition solution overnight in a refrigerator and the next day a specimen from a short strip removal in the endothelium (open ring) of width 3 mm was obtained. The specimen was hanged in 10 ml of the organ bath filled with Krebs-Henseleit solution, 95% bubbling oxygen (O2) and bicarbonate (CO2) at 37° C. One side was fixed and the other side was connected to the isometric transducer (T7-8-240, T7-30-240, Olientic) and the change of tension on the amplifier was used for tension recording. After confirming the state for 120 minutes under 1.5 g loading, KCl (40 mM) was added. When the contraction reached a maximum, KCl was washed out. This wash-out was repeated 4 times during the course of 15 minutes. After the stable contraction of KCl was obtained, KCl (30 mM) dissolved in saline was added. […] The Krebs-Henseleit solution without the compounds served as the control.
In a further data set the test system is normal rat. As to the kind of experiment: LV diastolic function in normal rat (LV catheter, i.v. infusion). Type of data set: in vivo. The settings on record: 0.1 mg/kg/min i.v. infusion for 10 minutes, before administration set at 100%, mean and standard deviation. An excerpt: (1) After breeding for 1 week, male Wistar rats were anesthetized with 3% isoflurane inhalation, followed by an insertion of a tube in the trachea and respiration subsequently controlled with an artificial ventilator using 1.7% isoflurane for maintained anesthetization. A micrometer-tipped pressure catheter (Manufactured by 2F, Millar Instruments) was inserted from the right common carotid artery into the left ventricle (LV) and a polyethylene catheter (SP10) was inserted into the right femoral vein for the compound of the present invention or physiological salt solution (PSS) injections. After confirming stable hemodynamics for 10 minutes, LV minimum diastolic pressure and LV end-diastolic pressure was counted every minute. The compound [III] (0.1 mg/kg/min) of the present invention or PSS was infused at 16.6 μL/min for 10 minutes in the test and control groups, respectively.
LV minimum diastolic pressure and LV end-diastolic pressure was counted every minute for 20 heart beats before and after administration of the compound. […] Data is shown as mean and standard deviation.

Another data set is described as follows: Solubility in solvents. Type of data set: physicochemical. From the text: The compound of the present invention, 3-4-benzylpiperidin-1-yl)propionyl-7-methoxy-2,3,4,5-tetrahydro-1,4-benzothiazepine-1-oxide, which is produced by an oxidation of the hydrochloride salt represented by formula [V] by the oxidant, isolated by silica gel chromatography using chloroform-methanol as a solvent, followed by removed the solvent from the chloroform-methanol solution by azeotropic distillation, and finally removed by the residual solvent in argon. The purity of compound presented by formula [III], thus obtained is 90% or higher, and a molecular weight (mw) of the compound is 440.61. […] The compound has stereoisomers in the amide form, is confirmed to exist at the rate of about 2:3 in of amide parts using H-NMR analysis at room temperature.

Setting [5] is: chronic infarct rat, baseline before norepinephrine infusion.
[6] abbreviates: chronic infarct rat, norepinephrine 20 μg/kg/min infusion.
[7] abbreviates: chronic infarct rat under norepinephrine 20 μg/kg/min, 0.1 mg/kg/min infused 10 minutes, before administration set at 100%, mean and standard error.

In the case of `NC[C@H](O)c1ccc(O)c(O)c1` [Norepinephrine, norepinephrine], in the data set with chronic infarct rat (setting [5]), the “LV end-diastolic pressure before administration of Norepinephrine” value is 6.5 ± 0.7 mmHg and the “LV minimum diastolic pressure before administration of Norepinephrine” value was 4.5 ± 0.8 mmHg. For the same molecule, in the data set on chronic infarct rat (setting [6]), the “LV end-diastolic pressure after administration of Norepinephrine” value was determined as 25.8 ± 1.1 mmHg and the “LV minimum diastolic pressure after administration of Norepinephrine” value stood at 18.5 ± 1.2 mmHg.
For the molecule `COc1ccc2c(c1)CN(C(=O)CCN1CCC(Cc3ccccc3)CC1)CC[S+]2[O-]` (stereo not drawn) [compound [III], 4-[3-(4-benzylpiperidin-1-yl)propionyl]-7-methoxy-2,3,4,5-tetrahydro-1,4-benzothiazepine-1-oxide], the “LV pressure before administration” value with Male Wistar rats [1] (before compound infusion) amounted to 189.2±14.0 mmHg. Besides, the “LV pressure after administration” value in the data set with Male Wistar rats [1] (compound 0.1 mg/kg/min for 10 minutes, infused three times) turned out to be 180.3±14.9 mmHg. Moreover, in the data set on Male Wistar rats [2], the “Heart rate after administration” value is 360.9±29.1 beat/min, the “LV diastolic function (−dP/dt) after administration” value is on record as −5982.6±520.1 mmHg/sec, the “LV pressure after administration” value turned out to be 106.3±5.5 mmHg and the “LV diastolic function (−dP/dt) before administration” value is −5631.4±395.9 mmHg/sec. In the data set with Male Wistar rats [2], the “LV pressure before administration” value amounted to 106.0±5.8 mmHg and the “Heart rate before administration” value came to 361.7±26.5 beat/min. The stability result in data set [3] is “stable against exposure of oxygen, humidity, acid and alkali at room temperature”. Also, the EC50 in data set [4] was 42 µM. In the data set with chronic infarct rat (setting [7]), the “LV end-diastolic pressure after administration” value stood at 78.4 ± 6.6% and the “LV minimum diastolic pressure after administration” value is 76.0 ± 5.2%. Further, the skin irritation result in the data set “Skin irritation” was “irritating to the skin”. In the data set on normal rat, the “LV end-diastolic pressure after administration” value was found to be 78.4 ± 6.6% and the “LV minimum diastolic pressure after administration” value stood at 76.0 ± 5.2%. The solubility in solvents entry in “Solubility in solvents” was “easily dissolved in ethanol and dimethysulfoxide (DMSO)”.
Take `COc1ccc2c(c1)CN(C(=O)CCN1CCC(Cc3ccccc3)CC1)CCS2` [compound [II] (R═H), 4-[3-(4-benzylpiperidin-1-yl)propionyl]-7-methoxy-2,3,4,5-tetrahydro-1,4-benzothiazepine, reference compound]: in the data set on Male Wistar rats [2], the “Heart rate after administration” value is reported as 320.2±24.2 beat/min, the “LV diastolic function (−dP/dt) after administration” value is reported as −5311.0±961.4 mmHg/sec, the “LV pressure after administration” value amounted to 100.8±6.0 mmHg and the “LV diastolic function (−dP/dt) before administration” value is recorded as −5973.4±1121.3 mmHg/sec. For the same molecule, in the data set on Male Wistar rats [2], the “LV pressure before administration” value was 103.7±4.2 mmHg and the “Heart rate before administration” value is listed as 370.1±18.9 beat/min.
For the molecule `COc1ccc2c(c1)CN(C(=O)CCN1CCC(Cc3ccc(O)cc3)CC1)CC[S+]2[O-]` (stereo not drawn) [compound [IV], 4-{3-[4-(4-hydroxybenzyl)piperadin-1-yl]propionyl}-7-methoxy-2,3,4,5-tetrahydro-1,4-benzothiazepine-1-oxide], the EC50 in data set [4] was determined as 100 µM.
